Laboratory results published in ChEMBL document CHEMBL1201862, “PubChem BioAssay data set” (2004).
The source made the active and inactive calls.

System: not listed separately
Assay: Luminescence Cell-Based Dose Confirmation HTS to Identify Inhibitors of Platelet Dense Granule Release. [Related pubchem assays: 1663 (Primary HTS), 1678 (Summary of Project)]
Format: functional
Conditions: not given

Row | SMILES | EC50
1 | CCc1nnc(NC(=O)[C@@H](NC(=O)c2cc(OC)cc(OC)c2)C(C)C)s1 | > 112 µM (not active)

Target: Cytochrome P450 3A4 (Homo sapiens, UniProt P08684);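 further: CYP3A4 tested as one member of a cytochrome P450 panel screen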
Assay: not given
Conditions: not given

Chain of Cytochrome P450 3A4 (P08684 whole entry): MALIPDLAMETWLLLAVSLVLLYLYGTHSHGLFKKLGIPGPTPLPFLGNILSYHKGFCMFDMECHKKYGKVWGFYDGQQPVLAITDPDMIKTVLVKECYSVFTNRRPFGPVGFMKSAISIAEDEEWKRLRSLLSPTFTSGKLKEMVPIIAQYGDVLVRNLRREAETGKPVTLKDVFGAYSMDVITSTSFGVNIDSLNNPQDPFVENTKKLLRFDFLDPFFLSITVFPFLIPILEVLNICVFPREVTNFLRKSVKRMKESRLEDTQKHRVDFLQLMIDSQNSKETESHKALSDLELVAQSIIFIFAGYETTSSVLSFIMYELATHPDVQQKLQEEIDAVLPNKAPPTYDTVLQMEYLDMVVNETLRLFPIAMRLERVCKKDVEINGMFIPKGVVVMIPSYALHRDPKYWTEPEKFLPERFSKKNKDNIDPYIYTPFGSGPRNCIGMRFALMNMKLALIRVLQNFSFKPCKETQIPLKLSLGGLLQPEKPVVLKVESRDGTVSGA

Row | SMILES | AC50
2 | O=C(N/N=C\c1ccc(Sc2ccccn2)o1)c1cccc(Br)c1 | 22.4 µM (inconclusive)
3 | Cc1ccc(-c2nnc(C)c(N3CC(C)OC(C)C3)n2)cc1 (stereo not drawn) | 5.01 µM (inconclusive)
4 | Cc1ccc(-c2nc(-c3nccc4ccccc34)oc2-c2ccccc2)cc1 | 5.01 µM (inconclusive)
5 | Cc1ccc(C)n1NC(=O)c1ccccc1 | 31.6 µM (inconclusive)
6 | Cc1ccccc1OCCNc1ccc(C(F)(F)F)cc1[N+](=O)[O-] | 31.6 µM (inconclusive)
7 | c1cc2c(cc1C1CCCCC1)c1c3n2CCN[C@H]3CCC1 | 31.6 µM (inconclusive)

Target: Cytochrome P450 2D6 (Homo sapiens, UniProt P10635);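 further: CYP2D6 member of a cytochrome P450 panel assay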
Assay: not given
Conditions: not given

Chain of Cytochrome P450 2D6 (P10635 whole entry): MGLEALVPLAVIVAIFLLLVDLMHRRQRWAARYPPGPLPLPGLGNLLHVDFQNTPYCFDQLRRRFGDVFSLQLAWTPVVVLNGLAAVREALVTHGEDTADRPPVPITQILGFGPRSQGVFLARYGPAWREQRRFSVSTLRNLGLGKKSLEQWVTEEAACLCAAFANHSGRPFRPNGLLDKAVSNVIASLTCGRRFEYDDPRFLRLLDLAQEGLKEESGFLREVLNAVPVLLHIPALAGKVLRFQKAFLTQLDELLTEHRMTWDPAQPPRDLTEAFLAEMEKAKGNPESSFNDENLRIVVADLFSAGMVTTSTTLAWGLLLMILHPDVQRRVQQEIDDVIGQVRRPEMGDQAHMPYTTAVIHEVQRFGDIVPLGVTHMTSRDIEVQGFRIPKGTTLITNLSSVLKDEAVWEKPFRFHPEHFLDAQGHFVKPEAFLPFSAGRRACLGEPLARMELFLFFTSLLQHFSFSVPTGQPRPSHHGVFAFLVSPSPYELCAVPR

Row | SMILES | AC50
8 | O=C(N/N=C\c1ccc(Sc2ccccn2)o1)c1cccc(Br)c1 | 28.2 µM (inconclusive)
9 | Cc1ccccc1OCCNc1ccc(C(F)(F)F)cc1[N+](=O)[O-] | 5.01 µM (inconclusive)
10 | c1cc2c(cc1C1CCCCC1)c1c3n2CCN[C@H]3CCC1 | 12.6 µM (inconclusive)

Target: Cytochrome P450 2C19 (Homo sapiens, UniProt P33261)
Assay: Cytochrome panel assay with activity outcomes. Panel member name: p450-cyp2c19 Compounds with AC50 equal or less than 10 uM are considered active
Format: functional
Conditions: read-out: AC50

Chain of Cytochrome P450 2C19 (P33261 whole entry): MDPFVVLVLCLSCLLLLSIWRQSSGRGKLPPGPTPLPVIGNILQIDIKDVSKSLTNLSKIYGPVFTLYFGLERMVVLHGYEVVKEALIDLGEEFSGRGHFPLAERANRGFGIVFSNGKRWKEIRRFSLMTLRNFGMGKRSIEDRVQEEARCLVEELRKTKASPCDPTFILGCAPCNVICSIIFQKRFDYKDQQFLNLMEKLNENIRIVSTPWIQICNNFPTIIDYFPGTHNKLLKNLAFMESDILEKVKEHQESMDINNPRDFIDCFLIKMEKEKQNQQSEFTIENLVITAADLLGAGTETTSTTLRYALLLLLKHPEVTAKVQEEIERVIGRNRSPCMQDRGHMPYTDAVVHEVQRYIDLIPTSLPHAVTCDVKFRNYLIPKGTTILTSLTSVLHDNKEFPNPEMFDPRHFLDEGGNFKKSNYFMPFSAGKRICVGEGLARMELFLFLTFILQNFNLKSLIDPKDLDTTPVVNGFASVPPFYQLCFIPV

Row | SMILES | AC50
11 | Cc1ccc(-c2nc(-c3nccc4ccccc34)oc2-c2ccccc2)cc1 | 5.01 µM (inconclusive)
12 | Cc1ccccc1OCCNc1ccc(C(F)(F)F)cc1[N+](=O)[O-] | 0.316 µM (inconclusive)

System: not listed separately
Assay: Luminescence Cell-Based Dose Response HTS to Identify Inhibitors of 5'UTR Stem-Loop Driven Prion Protein mRNA Translation in H4 Neuroglioblastoma Cells. [Related pubchem assays: 1827 (Project Summary), 1813 (Primary HTS)]
Format: functional
Conditions: not given

Row | SMILES | EC50
13 | CCCCCCC(=O)N1C/C=C\C(c2ccc(OC)cc2)N(Cc2ccc(F)cc2)C(=O)[C@H]1Cc1ccccc1 (stereo partly drawn) | > 120 µM (not active)
14 | CC(C)c1ccc(/C=C/C2=NNC(=O)CC2)cc1 | 11.5 µM (active)

System: not listed separately
Assay: microbe, parasite or virus in culture
Format: functional
Conditions: Mycobacterium tuberculosis

Row | SMILES | CC50
15 | COc1ccc2nc(NN=C3C(=O)CC(C)(C)CC3=O)sc2c1 | 26.2 µM (active)
16 | Cc1ccccc1C(=O)Nc1ccc(-c2nc3cc(C(=O)c4ccccc4)ccc3[nH]2)cc1 | > 40 µM (active)
17 | c1ccc(CN2CCC3(CCCc4ccccc43)CC2)cc1 | > 40 µM (active)
18 | CCC1=C(OC(=O)N(CC)CC)N2C(=O)O/C(=N\CCc3c[nH]c4ccccc34)[C@]2(Cc2ccccc2)[C@H]2C1=CC[C@H]1C(=O)NC(=O)[C@H]12 | > 40 µM (active)

Target: T1, Streptokinase A (Streptococcus pyogenes serotype M1, UniProt P10520)
T1 sequence (P10520 whole entry): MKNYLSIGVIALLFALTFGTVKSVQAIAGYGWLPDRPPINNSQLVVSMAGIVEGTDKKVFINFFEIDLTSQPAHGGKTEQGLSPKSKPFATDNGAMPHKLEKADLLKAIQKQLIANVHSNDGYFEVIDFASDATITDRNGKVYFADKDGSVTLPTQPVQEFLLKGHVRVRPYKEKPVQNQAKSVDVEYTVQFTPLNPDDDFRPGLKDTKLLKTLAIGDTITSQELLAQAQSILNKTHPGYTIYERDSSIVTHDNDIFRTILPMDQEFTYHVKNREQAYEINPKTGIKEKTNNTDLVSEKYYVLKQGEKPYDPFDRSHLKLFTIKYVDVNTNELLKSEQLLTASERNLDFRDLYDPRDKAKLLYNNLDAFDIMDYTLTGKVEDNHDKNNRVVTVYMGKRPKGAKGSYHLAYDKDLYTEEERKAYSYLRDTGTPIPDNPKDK
Assay: viability-normalized secreted streptokinase activity reduction – plasminogen activation absorbance, OD405, dose response (AID 1914);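 further: secreted streptokinase activity via plasminogen activation per viability signal from cell pellet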
Format: functional, Streptococcus pyogenes M1 GAS
Conditions: not given

Row | SMILES | EC50
19 | Clc1ccc2nc(-c3ccccn3)c(Nc3ccc4c(c3)OCO4)n2c1 | > 150 µM (not active)

Target: Luciferin 4-monooxygenase (Photinus pyralis, UniProt P08659)
Assay: inhibition of purified Photinus pyralis luciferase – biochemical, luminescence, dose response (AID 1891)
Conditions: not given

Chain of Luciferin 4-monooxygenase (P08659 whole entry): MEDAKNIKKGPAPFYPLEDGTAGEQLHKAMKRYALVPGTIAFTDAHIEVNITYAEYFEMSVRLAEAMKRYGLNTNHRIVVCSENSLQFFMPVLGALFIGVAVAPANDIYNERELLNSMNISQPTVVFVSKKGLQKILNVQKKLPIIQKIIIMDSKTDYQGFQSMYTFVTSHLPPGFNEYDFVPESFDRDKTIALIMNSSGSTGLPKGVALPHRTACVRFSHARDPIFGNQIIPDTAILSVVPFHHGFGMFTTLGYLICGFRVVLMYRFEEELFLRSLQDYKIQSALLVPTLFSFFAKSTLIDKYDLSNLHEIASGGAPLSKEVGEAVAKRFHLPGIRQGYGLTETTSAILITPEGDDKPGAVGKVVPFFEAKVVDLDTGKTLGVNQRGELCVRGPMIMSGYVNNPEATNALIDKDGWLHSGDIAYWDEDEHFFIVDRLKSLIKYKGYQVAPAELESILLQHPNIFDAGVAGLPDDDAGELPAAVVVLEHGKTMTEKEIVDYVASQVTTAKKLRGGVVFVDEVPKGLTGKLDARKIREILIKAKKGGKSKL

Row | SMILES | EC50
20 | CCc1nnc(NC(=O)[C@@H](NC(=O)c2cc(OC)cc(OC)c2)C(C)C)s1 | > 112 µM (not active)

System: not listed separately
Assay: viability of uninfected HEp-2 cells – cell-based, HTS, cytotoxicity control for RSV inhibitor project, dose response (AID 2410)
Format: functional
Conditions: human respiratory syncytial virus

Row | SMILES | CC50
21 | Cc1ccccc1C(=O)Nc1ccc(-c2nc3cc(C(=O)c4ccccc4)ccc3[nH]2)cc1 | 6.02 µM (active)
22 | FC(F)(F)c1ccccc1-c1nc(-c2ccncc2)no1 | 30.5 µM (active)

System: Streptococcus sp. 'group A'
Assay: Streptococcus pyogenes SK(-)GAS viability under kanamycin – luminescence, BacTiterGlo, confirmation, counter-screen for streptokinase expression inhibitor project, dose response (AID 1900)
Format: functional, organism-based
Conditions: not given

Row | SMILES | EC50
23 | Clc1ccc2nc(-c3ccccn3)c(Nc3ccc4c(c3)OCO4)n2c1 | 6.89 µM (active)
24 | O=C(CNc1ccccc1)N/N=C/c1c(O)ccc2ccccc12 | 1.02 µM (active)

System: not listed separately
Assay: alpha-synuclein stem-loop luciferase translation blockers – H4 neuroglioma cells, luminescence, confirmation (AID 1988)
Format: functional, cell-based
Conditions: not given

Row | SMILES | EC50
25 | CCCCCCC(=O)N1C/C=C\C(c2ccc(OC)cc2)N(Cc2ccc(F)cc2)C(=O)[C@H]1Cc1ccccc1 (stereo partly drawn) | 9.71 µM (active)
26 | CC(C)c1ccc(/C=C/C2=NNC(=O)CC2)cc1 | 0.13 µM (active)

System: not listed separately
Assay: Luminescence Cell-Based Dose Retest to Confirm Inhibitors of Cancer Stem Cells. [Related pubchem assays (depositor defined):AID2717, AID2721]
Format: functional
Conditions: Homo sapiens

Row | SMILES | AC50
27 | Cc1ccccc1C(=O)Nc1ccc(-c2nc3cc(C(=O)c4ccccc4)ccc3[nH]2)cc1 | 1.36 µM (active)

Target: T2, Corticotropin-releasing factor receptor 2/Corticotropin-releasing factor-binding protein (Homo sapiens, UniProt P24387+Q13324)
T2 sequence (Q13324 whole entry): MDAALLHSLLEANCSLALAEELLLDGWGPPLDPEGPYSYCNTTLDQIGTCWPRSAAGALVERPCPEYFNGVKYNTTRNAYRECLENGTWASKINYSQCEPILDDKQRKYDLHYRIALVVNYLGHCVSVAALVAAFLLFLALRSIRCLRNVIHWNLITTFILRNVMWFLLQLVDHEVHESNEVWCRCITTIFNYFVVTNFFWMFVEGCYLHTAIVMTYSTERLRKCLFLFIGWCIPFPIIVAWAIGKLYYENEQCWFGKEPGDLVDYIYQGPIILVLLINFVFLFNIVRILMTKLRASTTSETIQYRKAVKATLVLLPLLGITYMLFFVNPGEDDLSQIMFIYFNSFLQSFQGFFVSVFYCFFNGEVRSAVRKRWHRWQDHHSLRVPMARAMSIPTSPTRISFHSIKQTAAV
T2 sequence (P24387 whole entry): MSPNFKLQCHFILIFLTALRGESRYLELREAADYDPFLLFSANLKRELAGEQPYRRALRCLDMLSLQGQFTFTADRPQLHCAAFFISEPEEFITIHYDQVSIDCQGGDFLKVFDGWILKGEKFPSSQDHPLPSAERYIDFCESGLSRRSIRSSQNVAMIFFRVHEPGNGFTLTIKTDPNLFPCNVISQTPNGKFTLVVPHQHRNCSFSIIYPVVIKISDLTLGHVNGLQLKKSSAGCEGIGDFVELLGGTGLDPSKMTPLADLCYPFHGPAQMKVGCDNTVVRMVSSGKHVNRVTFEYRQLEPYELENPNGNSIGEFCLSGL
Assay: Dose Response confirmation of uHTS hits for small molecule antagonists of the CRF-binding protein and CRF-R2 receptor complex.
Format: functional
Conditions: read-out: IC50_Mean

Row | SMILES | IC50
28 | CCCCCC(=O)NNC(=O)c1ccc(F)cc1 | > 47.1 µM (inactive)
29 | FC(F)(F)c1ccccc1-c1nc(-c2ccncc2)no1 | > 47.1 µM (inactive)

Target: T3, Cytochrome P450 1A2 (Homo sapiens, UniProt P05177);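 further: PubChem cytochrome P450 panel assay, CYP1A2 panel member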
T3 sequence (P05177 whole entry): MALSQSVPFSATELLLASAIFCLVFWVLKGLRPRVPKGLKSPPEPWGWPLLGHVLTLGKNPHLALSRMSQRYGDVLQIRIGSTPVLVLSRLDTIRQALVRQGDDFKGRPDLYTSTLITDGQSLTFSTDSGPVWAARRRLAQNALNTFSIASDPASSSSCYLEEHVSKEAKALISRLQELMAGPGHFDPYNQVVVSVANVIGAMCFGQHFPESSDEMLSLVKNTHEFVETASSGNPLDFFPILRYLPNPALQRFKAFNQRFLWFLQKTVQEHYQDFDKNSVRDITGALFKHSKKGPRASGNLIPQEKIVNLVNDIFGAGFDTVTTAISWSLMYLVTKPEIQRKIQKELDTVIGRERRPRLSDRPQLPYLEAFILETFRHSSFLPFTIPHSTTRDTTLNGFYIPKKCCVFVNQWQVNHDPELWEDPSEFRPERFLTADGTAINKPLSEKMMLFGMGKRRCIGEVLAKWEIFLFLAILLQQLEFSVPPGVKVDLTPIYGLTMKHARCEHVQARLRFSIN
Assay: not given
Conditions: not given

Row | SMILES | AC50
30 | Cc1ccc(-c2nnc(C)c(N3CC(C)OC(C)C3)n2)cc1 (stereo not drawn) | 4.47 µM (inconclusive)

System: INS1
Assay: INS-1E survival protection against cytokine death – cell-based, luminescence, retest, dose response (AID 449756);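 further: cell death triggered by IL-1 beta plus TNF-alpha plus IFN-gamma mixture; protective hits raise ATP signal compared with cytokine alone wells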
Format: functional
Conditions: Rattus norvegicus

Row | SMILES | AC50
31 | CCCCCCC(=O)N1C/C=C\C(c2ccc(OC)cc2)N(Cc2ccc(F)cc2)C(=O)[C@H]1Cc1ccccc1 (stereo partly drawn) | 6.16 µM (active)
32 | O=C(CNc1ccccc1)N/N=C/c1c(O)ccc2ccccc12 | 3.29 µM (active)

Target: T4, Calpain-2 catalytic subunit (Sus scrofa, UniProt P43367)
T4 sequence (P43367 whole entry): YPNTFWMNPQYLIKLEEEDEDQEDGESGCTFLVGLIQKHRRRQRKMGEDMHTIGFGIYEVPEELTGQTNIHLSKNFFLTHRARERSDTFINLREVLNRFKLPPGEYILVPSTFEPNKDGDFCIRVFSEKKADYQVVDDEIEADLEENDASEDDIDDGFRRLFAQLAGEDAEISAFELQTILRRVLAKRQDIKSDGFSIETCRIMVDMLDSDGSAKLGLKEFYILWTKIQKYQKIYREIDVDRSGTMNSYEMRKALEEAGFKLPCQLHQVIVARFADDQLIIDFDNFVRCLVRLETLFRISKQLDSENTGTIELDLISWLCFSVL
Assay: m-calpain protease blockers, concentration series – biochemical, fluorogenic peptide substrate, dose response (AID 1420)
Format: functional
Conditions: not given

Row | SMILES | IC50
33 | Clc1ccc2nc(-c3ccccn3)c(Nc3ccc4c(c3)OCO4)n2c1 | 0.608 µM (not active)
34 | CCc1nnc(NC(=O)[C@@H](NC(=O)c2cc(OC)cc(OC)c2)C(C)C)s1 | 49.9 µM (not active)
35 | CC(C)c1ccc(/C=C/C2=NNC(=O)CC2)cc1 | 14.3 µM (not active)

System: Streptococcus
Assay: GAS UMAA2166 growth inhibition – luminescence, BacTiterGlo, counter-screen for streptokinase expression inhibitor project, dose response (AID 1915);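 further: potency for reduction of bacterial viability or growth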
Format: functional, organism-based
Conditions: not given

Row | SMILES | EC50
36 | Clc1ccc2nc(-c3ccccn3)c(Nc3ccc4c(c3)OCO4)n2c1 | 12.7 µM (active)
37 | O=C(CNc1ccccc1)N/N=C/c1c(O)ccc2ccccc12 | 0.939 µM (active)

Target: Cytochrome P450 2C9 (Homo sapiens, UniProt P11712)
Assay: not given
Conditions: not given

Chain of Cytochrome P450 2C9 (P11712 whole entry): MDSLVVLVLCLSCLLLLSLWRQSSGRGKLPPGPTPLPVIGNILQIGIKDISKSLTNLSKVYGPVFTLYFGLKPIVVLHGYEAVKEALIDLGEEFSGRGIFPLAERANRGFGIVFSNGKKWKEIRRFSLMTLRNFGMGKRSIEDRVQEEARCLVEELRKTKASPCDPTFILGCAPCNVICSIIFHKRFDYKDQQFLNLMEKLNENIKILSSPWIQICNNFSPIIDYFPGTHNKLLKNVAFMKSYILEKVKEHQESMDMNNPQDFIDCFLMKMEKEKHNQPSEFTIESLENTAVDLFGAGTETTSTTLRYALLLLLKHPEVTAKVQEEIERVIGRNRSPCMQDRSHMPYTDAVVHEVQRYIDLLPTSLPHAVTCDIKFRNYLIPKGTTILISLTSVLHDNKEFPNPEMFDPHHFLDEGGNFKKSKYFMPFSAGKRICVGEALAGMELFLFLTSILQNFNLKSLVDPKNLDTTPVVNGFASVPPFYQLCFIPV

Row | SMILES | AC50
38 | Cc1ccc(C)n1NC(=O)c1ccccc1 | 0.141 µM (inconclusive)
39 | c1cc2c(cc1C1CCCCC1)c1c3n2CCN[C@H]3CCC1 | 20 µM (inconclusive)

Target: T2, Corticotropin-releasing factor receptor 2/Corticotropin-releasing factor-binding protein
Assay: activators of CRF receptor 2 with binding protein – uHTS hits, confirmation (AID 602473)
Format: functional
Conditions: read-out: EC50_Mean

Row | SMILES | EC50
40 | CCCCCC(=O)NNC(=O)c1ccc(F)cc1 | > 53 µM (inactive)
41 | FC(F)(F)c1ccccc1-c1nc(-c2ccncc2)no1 | > 53 µM (inactive)

System: not listed separately
Assay: luciferase reporter signal suppression in cells – H4 neuroglioma cells, luminescence, dose response (AID 1990)
Format: functional, cell-based
Conditions: not given

Row | SMILES | EC50
42 | CCCCCCC(=O)N1C/C=C\C(c2ccc(OC)cc2)N(Cc2ccc(F)cc2)C(=O)[C@H]1Cc1ccccc1 (stereo partly drawn) | > 120 µM (not active)
43 | CC(C)c1ccc(/C=C/C2=NNC(=O)CC2)cc1 | < 0.1 µM (active)
